The source of these data is US10870647B2, “Imidazopyridine derivative, method for preparing same, and pharmaceutical composition containing same as active ingredient for preventing or treating cancer” (DAEGU-GYEONGBUK MEDICAL INNOVATION FOUNDATION, priority 2016, dated 2020).

Holding throughout (assay): Kinase selectivity, scanMAX Kinase assay panel (DiscoverX), % control at 1 uM
Format in all cases: binding

For assay [1], the target named is T1, scanMAX Kinase assay panel (Homo sapiens, UniProt O00506).
T1 construct: purchased DiscoverX
T1 sequence (O00506 whole entry): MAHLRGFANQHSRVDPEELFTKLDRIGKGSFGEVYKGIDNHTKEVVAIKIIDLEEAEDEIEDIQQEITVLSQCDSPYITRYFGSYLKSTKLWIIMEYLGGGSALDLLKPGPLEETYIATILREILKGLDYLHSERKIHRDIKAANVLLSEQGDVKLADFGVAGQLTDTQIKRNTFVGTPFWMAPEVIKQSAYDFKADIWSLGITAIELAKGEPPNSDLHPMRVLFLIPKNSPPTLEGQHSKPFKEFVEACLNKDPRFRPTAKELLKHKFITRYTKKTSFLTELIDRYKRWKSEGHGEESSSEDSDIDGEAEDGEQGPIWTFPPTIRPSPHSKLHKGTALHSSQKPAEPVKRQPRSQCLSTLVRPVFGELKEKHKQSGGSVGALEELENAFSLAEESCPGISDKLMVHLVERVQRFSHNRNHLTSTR
The settings on record: YSK1; 1 uM; read-out: Percent Control (%). In short, it runs like this:
(§1)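 Each kinase was first exposed to the test compound at 1 uM in DMSO. Signal was then normalised to positive and negative controls to give % control. Finally, any enzyme showing <35% control was judged inhibited.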

In assay [2] the target is T2, scanMAX Kinase assay panel (Homo sapiens, UniProt P07332).
T2 construct: purchased DiscoverX
T2 sequence (P07332 whole entry): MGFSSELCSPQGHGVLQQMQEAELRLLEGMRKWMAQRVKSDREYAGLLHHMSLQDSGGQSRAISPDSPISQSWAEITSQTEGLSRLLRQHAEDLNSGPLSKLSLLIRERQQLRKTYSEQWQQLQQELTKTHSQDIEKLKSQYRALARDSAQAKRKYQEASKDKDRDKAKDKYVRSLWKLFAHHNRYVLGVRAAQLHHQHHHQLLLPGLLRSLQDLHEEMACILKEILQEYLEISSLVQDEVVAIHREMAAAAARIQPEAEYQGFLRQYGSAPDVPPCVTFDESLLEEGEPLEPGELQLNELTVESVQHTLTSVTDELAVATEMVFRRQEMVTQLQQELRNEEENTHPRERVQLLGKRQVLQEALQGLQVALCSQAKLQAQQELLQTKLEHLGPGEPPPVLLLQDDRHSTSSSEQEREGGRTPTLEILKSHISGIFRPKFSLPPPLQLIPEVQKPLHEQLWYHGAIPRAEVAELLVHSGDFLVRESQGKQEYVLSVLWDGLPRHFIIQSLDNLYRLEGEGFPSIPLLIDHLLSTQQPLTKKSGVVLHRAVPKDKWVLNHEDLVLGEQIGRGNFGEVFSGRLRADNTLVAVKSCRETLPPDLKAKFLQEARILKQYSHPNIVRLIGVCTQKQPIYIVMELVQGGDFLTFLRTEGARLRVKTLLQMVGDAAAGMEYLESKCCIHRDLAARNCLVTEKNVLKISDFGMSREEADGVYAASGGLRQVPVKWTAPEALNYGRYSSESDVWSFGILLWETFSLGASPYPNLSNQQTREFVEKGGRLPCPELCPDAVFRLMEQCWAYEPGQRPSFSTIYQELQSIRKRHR
The settings on record: FES; 1 uM; read-out: Percent Control (%). In short, it runs like this: as §1

Assay [3] concerns the target T3, scanMAX Kinase assay panel (Homo sapiens, UniProt P07948).
T3 construct: purchased DiscoverX
The following applies: LYN; 1 uM; read-out: Percent Control (%). In short, it runs like this: as §1

Assay [4] deals with T4, scanMAX Kinase assay panel (Homo sapiens, UniProt P08069).
T4 construct: purchased DiscoverX
T4 sequence (P08069 31-1367): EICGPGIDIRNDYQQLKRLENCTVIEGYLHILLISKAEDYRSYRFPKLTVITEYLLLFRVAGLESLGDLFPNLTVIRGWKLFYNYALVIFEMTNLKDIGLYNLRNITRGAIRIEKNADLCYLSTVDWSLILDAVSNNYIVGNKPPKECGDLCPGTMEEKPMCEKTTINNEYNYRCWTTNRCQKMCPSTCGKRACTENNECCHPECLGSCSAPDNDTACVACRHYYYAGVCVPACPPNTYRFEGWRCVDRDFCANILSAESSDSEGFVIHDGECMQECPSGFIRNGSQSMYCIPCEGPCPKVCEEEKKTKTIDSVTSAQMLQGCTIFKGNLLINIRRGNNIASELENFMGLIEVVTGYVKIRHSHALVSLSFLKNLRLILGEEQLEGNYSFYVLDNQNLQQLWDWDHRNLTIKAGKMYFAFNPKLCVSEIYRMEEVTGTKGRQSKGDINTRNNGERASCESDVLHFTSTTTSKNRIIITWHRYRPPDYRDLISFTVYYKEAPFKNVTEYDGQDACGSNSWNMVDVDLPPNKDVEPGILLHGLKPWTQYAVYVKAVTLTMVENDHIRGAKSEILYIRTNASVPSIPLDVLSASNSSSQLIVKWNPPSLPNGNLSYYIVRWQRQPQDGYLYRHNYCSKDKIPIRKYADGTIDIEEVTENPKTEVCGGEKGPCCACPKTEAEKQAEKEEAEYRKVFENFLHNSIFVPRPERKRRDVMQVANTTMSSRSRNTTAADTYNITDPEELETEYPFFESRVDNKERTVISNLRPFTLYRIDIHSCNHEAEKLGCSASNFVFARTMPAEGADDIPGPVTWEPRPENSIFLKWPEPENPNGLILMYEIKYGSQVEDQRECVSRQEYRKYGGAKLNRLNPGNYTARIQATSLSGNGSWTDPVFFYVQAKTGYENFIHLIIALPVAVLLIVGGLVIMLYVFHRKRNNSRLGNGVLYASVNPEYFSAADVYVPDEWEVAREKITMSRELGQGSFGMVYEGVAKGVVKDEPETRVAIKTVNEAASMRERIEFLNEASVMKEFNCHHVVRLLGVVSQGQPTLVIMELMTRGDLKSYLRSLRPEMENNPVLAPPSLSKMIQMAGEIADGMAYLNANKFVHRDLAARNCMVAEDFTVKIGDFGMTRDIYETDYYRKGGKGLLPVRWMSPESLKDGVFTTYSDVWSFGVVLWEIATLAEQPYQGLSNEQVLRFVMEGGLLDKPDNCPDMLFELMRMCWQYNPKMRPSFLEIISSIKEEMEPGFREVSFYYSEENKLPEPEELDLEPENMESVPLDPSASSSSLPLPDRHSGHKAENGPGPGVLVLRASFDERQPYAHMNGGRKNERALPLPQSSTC
The settings on record: IGF1R; 1 uM; read-out: Percent Control (%). In short, it runs like this: as §1

Assay [5] addresses T5, scanMAX Kinase assay panel (Homo sapiens, UniProt P16591).
T5 construct: purchased DiscoverX
The settings on record: FER; 1 uM; read-out: Percent Control (%). In short, it runs like this:
as §1

In assay [6] the target is T6, scanMAX Kinase assay panel (Homo sapiens, UniProt P51451).
T6 construct: purchased DiscoverX
T6 sequence (P51451 whole entry): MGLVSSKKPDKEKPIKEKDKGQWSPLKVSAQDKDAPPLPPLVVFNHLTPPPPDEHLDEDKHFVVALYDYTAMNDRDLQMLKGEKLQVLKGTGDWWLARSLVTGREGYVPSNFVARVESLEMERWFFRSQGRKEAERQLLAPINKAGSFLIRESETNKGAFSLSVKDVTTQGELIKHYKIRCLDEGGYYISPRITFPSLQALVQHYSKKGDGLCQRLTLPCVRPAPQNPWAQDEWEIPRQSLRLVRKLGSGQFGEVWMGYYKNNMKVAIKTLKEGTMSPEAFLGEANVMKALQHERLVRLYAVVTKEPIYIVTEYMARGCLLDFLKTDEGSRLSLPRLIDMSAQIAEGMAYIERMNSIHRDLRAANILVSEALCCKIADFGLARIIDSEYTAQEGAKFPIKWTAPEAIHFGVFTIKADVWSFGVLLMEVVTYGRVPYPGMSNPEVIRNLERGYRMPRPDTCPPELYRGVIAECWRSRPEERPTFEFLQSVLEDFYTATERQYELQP
The settings on record: BLK; 1 uM; read-out: Percent Control (%). The method in brief:
as §1

The target in assay [7] is T7, scanMAX Kinase assay panel (Homo sapiens, UniProt Q13470).
T7 construct: purchased DiscoverX
T7 sequence (Q13470 1-666): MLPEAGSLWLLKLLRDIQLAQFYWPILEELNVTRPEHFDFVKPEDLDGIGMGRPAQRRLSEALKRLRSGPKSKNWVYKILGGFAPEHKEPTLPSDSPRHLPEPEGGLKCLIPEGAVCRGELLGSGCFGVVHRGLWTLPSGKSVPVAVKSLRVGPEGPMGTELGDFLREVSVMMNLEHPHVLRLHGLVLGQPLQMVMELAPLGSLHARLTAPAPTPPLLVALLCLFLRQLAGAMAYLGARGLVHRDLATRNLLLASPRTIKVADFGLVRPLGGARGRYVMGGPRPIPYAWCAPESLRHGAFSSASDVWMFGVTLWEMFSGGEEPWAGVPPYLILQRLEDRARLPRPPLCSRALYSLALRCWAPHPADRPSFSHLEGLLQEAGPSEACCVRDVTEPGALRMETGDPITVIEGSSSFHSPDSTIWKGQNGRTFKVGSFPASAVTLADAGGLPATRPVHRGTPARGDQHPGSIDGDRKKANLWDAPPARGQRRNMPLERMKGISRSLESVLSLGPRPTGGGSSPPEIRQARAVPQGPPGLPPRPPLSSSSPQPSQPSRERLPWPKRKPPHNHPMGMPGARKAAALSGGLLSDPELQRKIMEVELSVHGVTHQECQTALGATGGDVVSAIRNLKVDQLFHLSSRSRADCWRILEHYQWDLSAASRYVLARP
The settings on record: TNK1; 1 uM; read-out: Percent Control (%). The method in brief: as §1

Assay [8] deals with T8, scanMAX Kinase assay panel (Homo sapiens, UniProt Q15418).
T8 construct: purchased DiscoverX
The following applies: 1 uM, read-out: Percent Control (%). In short, it runs like this:
as §1

Assay [9] deals with T9, scanMAX Kinase assay panel (Homo sapiens, UniProt Q15835).
T9 construct: purchased DiscoverX
T9 sequence (Q15835 1-563): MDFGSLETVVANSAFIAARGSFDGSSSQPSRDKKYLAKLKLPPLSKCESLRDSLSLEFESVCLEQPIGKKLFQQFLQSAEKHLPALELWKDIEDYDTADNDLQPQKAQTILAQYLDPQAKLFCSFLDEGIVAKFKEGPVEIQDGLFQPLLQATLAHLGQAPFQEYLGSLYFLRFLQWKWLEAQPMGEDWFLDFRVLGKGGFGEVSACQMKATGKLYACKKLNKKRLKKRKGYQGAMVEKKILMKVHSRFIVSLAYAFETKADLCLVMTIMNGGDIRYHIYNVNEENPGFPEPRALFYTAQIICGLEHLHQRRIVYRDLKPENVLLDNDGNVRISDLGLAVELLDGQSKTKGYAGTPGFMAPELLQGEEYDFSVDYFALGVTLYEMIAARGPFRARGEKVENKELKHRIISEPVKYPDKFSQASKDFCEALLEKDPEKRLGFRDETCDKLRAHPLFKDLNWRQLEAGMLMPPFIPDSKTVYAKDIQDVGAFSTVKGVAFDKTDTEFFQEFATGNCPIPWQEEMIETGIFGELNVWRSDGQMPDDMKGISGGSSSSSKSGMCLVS
The following applies: GRK1; 1 uM; read-out: Percent Control (%). The method in brief:
as §1

Assay [10] concerns the target T10, scanMAX Kinase assay panel (Homo sapiens, UniProt Q8IW41).
T10 construct: purchased DiscoverX
T10 sequence (Q8IW41 1-473): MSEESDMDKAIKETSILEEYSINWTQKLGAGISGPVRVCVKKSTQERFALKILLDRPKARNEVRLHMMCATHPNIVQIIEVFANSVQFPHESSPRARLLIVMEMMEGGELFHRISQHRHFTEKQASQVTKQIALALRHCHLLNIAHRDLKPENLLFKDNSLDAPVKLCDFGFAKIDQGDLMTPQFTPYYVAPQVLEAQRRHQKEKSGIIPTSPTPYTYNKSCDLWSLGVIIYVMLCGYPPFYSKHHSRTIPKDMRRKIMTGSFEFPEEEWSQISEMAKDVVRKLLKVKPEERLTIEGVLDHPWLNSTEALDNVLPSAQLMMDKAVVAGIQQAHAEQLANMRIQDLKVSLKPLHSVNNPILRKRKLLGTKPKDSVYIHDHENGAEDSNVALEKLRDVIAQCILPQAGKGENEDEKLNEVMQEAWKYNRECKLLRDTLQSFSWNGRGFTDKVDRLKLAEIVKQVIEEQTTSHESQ
The following applies: MAPKAPK5; 1 uM; read-out: Percent Control (%). The method in brief:
as §1

In assay [11] the target is T11, scanMAX Kinase assay panel (Homo sapiens, UniProt Q9C098).
T11 construct: purchased DiscoverX
T11 sequence (Q9C098 whole entry): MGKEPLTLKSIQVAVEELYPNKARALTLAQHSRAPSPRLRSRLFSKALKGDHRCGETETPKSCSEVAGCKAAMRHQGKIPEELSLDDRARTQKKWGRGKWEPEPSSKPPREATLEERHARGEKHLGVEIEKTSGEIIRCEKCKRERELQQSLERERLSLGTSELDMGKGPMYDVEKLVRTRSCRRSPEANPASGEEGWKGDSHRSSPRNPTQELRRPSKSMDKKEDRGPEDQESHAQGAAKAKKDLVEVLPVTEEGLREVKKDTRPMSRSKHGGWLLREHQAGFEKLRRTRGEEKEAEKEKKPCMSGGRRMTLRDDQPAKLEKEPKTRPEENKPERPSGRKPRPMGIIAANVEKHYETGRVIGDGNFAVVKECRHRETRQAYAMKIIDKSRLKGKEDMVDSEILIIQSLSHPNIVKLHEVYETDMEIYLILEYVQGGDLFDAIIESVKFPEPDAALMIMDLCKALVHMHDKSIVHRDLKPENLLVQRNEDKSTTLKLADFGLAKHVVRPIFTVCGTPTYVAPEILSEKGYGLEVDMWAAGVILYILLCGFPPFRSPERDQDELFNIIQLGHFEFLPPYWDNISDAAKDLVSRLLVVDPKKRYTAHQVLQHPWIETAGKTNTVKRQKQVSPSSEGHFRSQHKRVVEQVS
The following applies: DCAMKL3; 1 uM; read-out: Percent Control (%). The method in brief:
as §1

Assay [12] concerns the target T12, scanMAX Kinase assay panel (Homo sapiens, UniProt Q9UKE5).
T12 construct: purchased DiscoverX
The settings on record: TNIK; 1 uM; read-out: Percent Control (%). In short, it runs like this:
as §1

Where two headings read alike, the source gives them in different places.

T12 sequence (Q9UKE5 whole entry): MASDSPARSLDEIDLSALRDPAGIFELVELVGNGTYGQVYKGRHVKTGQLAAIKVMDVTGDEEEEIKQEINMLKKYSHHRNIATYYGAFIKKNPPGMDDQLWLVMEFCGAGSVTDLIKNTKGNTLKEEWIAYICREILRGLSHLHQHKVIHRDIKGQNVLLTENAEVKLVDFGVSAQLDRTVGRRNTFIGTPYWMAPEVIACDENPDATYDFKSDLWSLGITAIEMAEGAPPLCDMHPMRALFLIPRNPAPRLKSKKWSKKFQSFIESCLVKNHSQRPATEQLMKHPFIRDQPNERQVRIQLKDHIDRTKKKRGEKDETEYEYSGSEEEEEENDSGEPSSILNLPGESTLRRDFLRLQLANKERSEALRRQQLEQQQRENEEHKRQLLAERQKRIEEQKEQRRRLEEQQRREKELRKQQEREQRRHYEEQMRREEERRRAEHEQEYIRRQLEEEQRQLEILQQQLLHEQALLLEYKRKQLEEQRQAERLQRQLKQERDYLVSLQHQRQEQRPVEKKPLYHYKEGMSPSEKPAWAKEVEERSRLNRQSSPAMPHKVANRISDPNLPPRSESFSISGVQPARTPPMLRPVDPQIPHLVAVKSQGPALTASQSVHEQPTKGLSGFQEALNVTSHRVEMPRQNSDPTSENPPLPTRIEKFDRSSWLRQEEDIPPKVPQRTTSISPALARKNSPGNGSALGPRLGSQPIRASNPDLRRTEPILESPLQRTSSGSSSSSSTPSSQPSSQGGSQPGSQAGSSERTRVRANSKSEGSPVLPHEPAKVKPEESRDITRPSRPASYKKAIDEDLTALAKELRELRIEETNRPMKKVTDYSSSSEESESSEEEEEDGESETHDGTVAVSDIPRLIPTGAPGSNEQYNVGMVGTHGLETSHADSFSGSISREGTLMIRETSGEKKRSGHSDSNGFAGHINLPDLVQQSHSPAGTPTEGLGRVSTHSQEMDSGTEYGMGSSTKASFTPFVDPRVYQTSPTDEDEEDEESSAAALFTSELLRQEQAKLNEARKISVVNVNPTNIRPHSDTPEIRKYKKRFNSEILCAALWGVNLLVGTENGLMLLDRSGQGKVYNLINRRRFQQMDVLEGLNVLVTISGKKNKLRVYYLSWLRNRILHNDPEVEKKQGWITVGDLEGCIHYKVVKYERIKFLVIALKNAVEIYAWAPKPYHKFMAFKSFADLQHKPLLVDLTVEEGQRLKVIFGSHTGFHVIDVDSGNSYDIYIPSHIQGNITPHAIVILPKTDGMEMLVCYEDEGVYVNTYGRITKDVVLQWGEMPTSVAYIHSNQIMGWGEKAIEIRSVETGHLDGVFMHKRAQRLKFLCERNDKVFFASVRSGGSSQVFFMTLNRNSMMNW

For the compound `Cc1ccc(C(=O)Nc2ccc(CN3CCN(C)CC3)c(C(F)(F)F)c2)cc1C#Cc1cnc2c(Nc3cnn(C)c3)cccn12` [Example 1, 4-methyl-3-((8-((1-methyl-1H-pyrazol-4-yl)amino)imidazo[1,2-a]pyridin-3-yl)ethynyl)-N-(4-((4-methylpiperazin-1-yl)methyl)-3-(trifluoromethyl)phenyl)benzamide], the remaining binding at 1 µM in assay [1] turned out to be 90%; in [2] it was 0%; in assay [3], 0%; in assay [4], 56%; in assay [5], 1%; in assay [6], 0%. The remaining binding at 1 µM in assay [7] was determined as 0%; in assay [8] (RSK1 (Kin.Dom.1-N-terminal)), 60%; in assay [8] (RSK1 (Kin.Dom.2-C-terminal)), 64%; in assay [9] it was 65%; in [10] it was 100%; in [11], 98%. Moreover, the remaining binding at 1 µM in assay [12] is 11%.
For the compound `Cc1ccc(NC(=O)C2(C(=O)Nc3ccc(F)cc3)CC2)cc1C#Cc1cnc2c(Nc3cnn(C(C)C)c3)cccn12` [Example 78], the remaining binding at 1 µM in assay [1] worked out at 100%; in [2] it was 100%; in assay [3] it was 84%; in assay [4] it was 100%; in assay [5] it was 100%; in [6], 35%. Moreover, the remaining binding at 1 µM in assay [7] came to 100%; in assay [8] (RSK1 (Kin.Dom.1-N-terminal)), 100%; in [8] (RSK1 (Kin.Dom.2-C-terminal)), 95%; in assay [9], 99%; in assay [10], 100%; in [11], 100%. Moreover, in assay [12], the remaining binding at 1 µM was 88%.
With `Cc1cn(-c2cc(NC(=O)c3ccc(C)c(C#Cc4cnc5c(Nc6cnn(C)c6)cccn45)c3)cc(C(F)(F)F)c2)cn1` [Example 12, 4-methyl-N-(3-(4-methyl-1H-imidazol-1-yl)-5-(trifluoromethyl)phenyl)-3-((8-((1-methyl-1H-pyrazol-4-yl)amino)imidazo[1,2-a]pyridin-3-yl)ethynyl)benzamide], the remaining binding at 1 µM was found to be 86% in assay [1]; 6% in [2]; 3% in assay [3]; 100% in assay [4]; 40% in [5]; 1% in assay [6]. The remaining binding at 1 µM in assay [7] came out at 19%; in [8] (RSK1 (Kin.Dom.1-N-terminal)) it was 79%; in assay [8] (RSK1 (Kin.Dom.2-C-terminal)), 69%; in [9] it was 85%; in [10] it was 100%; in assay [11], 88%. The remaining binding at 1 µM in [12] came to 17%.
